Common to all, as to test: In vitro antibacterial MIC, broth microdilution
In general terms: Dilution methods test growth across graded concentrations, often in twofold steps.

The subject of assay [1] is X. maltophilia ATCC 13637. The class given is cell-based. The following applies: Mueller Hinton broth, 20 h at 35° C. As to the method: (§1) The compounds of the invention were evaluated against various bacterial strains by determining the minimum inhibitory concentration (MIC) of each compound with respect to each strain. The MIC is defined as the lowest concentration of drug which prevents the growth of the bacteria. A variety of different Gram-negative and Gram-positive bacterial species and strains can be selected for assay purposes depending on the particular desired application. The susceptibility assay is performed in Mueller Hinton broth using a microdilution technique in a final test volume of 100 μl using 96-well microtiter plates. Test compounds are prepared in Mueller-Hinton broth at a concentration equivalent to 2-fold the desired final concentration. The bacterial inoculi are prepared as follow. Bacterial strains are grown overnight at 35° C. on Tryptic Soy agar (TSA). For each strain, one isolated colony is used to inoculate a volume of 8 ml of Mueller Hinton broth and these cultures are incubated overnight (20 h) at 35° C. in a shaking incubator. Culture are then diluted 1:10 and allow to grow for an additional one hour at 35° C. in a shaking incubator. The inoculum used for the susceptibility assay is prepared by diluting the early log-phase (1 h) culture 1:2000 with fresh Mueller Hinton broth. A 50 μl volume of the inoculi, and a 50 μl solution of the test compound prepared as described above is added to each well. This procedure results in an inoculum of approximately 5×10^5 CFU/ml. After incubation for 20 h at 35° C., the absorbance of the cultures in each is read, e.g., using the ThermoMax microtiter plate reader (Molecular Devices) at 650 nm. The MIC is defined as the lowest concentration of compounds which prevents growth of the microorganism and therefore results in a final absorbance equal to that of the drug-free (e.g., test compound free) control.

Another assay relates to E. coli ATCC 25922. The assay is classed as cell-based. The note with it: Mueller Hinton broth, 20 h at 35° C. As to the method: as §1
The next assay concerns E. faecalis ATCC 29212. The assay is classed as cell-based. The following applies: Mueller Hinton broth, 20 h at 35° C. As to the method:
as §1

The next assay relates to S. aureus ATCC 29213. The assay is classed as cell-based. The note with it: Mueller Hinton broth, 20 h at 35° C. As to the method: as §1
Assay [2] concerns S. epidermidis ATCC 31432. The assay is classed as cell-based. The note with it: Mueller Hinton broth, 20 h at 35° C. The method, then:
as §1

A further assay has as its system P. aeruginosa UPA res. The class given is cell-based, Pseudomonas aeruginosa. The note with it: Mueller Hinton broth, 20 h at 35° C. As to the method: as §1
The next assay has as its system P. aeruginosa ATCC 27853. The class given is cell-based, Pseudomonas aeruginosa. The note with it: Mueller Hinton broth, 20 h at 35° C. As to the method:
as §1

The next assay concerns P. aeruginosa 799/61. The class given is cell-based, Pseudomonas aeruginosa. The note with it: P. aeruginosa 799/61 (sensitive strain); Mueller Hinton broth, 20 h at 35° C. The method, then:
as §1

`C[C@H](N)C(=O)N[C@@H](Cc1cccc(O)c1)C(=O)N(C)[C@@H](C)[C@H](NC(=O)[C@H](C)NC(=O)N[C@@H](Cc1c[nH]c2ccccc12)C(=O)O)C(=O)N/C=C1/C[C@@H](O)[C@H](n2ccc(=O)[nH]c2=O)O1` [Pacidamycin-1, pacidamycin-1, reference compound]: the “Minimal Inhibitory Concentration, MIC” value in assay [1] was over 250 µg/mL; in the assay on E. coli ATCC 25922, over 250 µg/mL; in the assay on E. faecalis ATCC 29212, 64 µg/mL; with S. aureus ATCC 29213, over 250 µg/mL; in assay [2] it was over 250 µg/mL; in the assay with P. aeruginosa UPA res., over 250 µg/mL. Besides, the “Minimal Inhibitory Concentration, MIC” value with P. aeruginosa ATCC 27853 is 4 µg/mL; with P. aeruginosa 799/61, 1 µg/mL.

Turning to `C[C@H](NC(=O)N[C@@H](Cc1c[nH]c2ccccc12)C(=O)O)C(=O)N[C@H](C(=O)N/C=C1/C[C@@H](O)[C@H](n2ccc(=O)[nH]c2=O)O1)[C@H](C)N(C)C(=O)[C@@H](N)Cc1cccc(O)c1` [Pacidamycin-4, pacidamycin-4, reference compound], the “Minimal Inhibitory Concentration, MIC” value with E. coli ATCC 25922 is 64 µg/mL; in the assay with E. faecalis ATCC 29212 it was 64 µg/mL; in the assay with S. aureus ATCC 29213, over 250 µg/mL; in assay [2], over 250 µg/mL; in the assay on P. aeruginosa UPA res., over 250 µg/mL; in the assay on P. aeruginosa ATCC 27853, 16 µg/mL. For the same compound, the “Minimal Inhibitory Concentration, MIC” value with P. aeruginosa 799/61 worked out at 2 µg/mL.

Take `C[C@H](N)C(=O)N(C)[C@@H](C)[C@H](NC(=O)[C@H](C)NC(=O)N[C@@H](Cc1c[nH]c2ccccc12)C(=O)O)C(=O)N/C=C1/C[C@@H](O)[C@H](n2ccc(=O)[nH]c2=O)O1` [Pacidamycin-D, pacidamycin-D]: the “Minimal Inhibitory Concentration, MIC” value was over 256 µg/mL in the assay on P. aeruginosa UPA res., 16 µg/mL in the assay with P. aeruginosa ATCC 27853 and 4 µg/mL in the assay with P. aeruginosa 799/61.

Take pacidamycin-4N: the entries for the “Minimal Inhibitory Concentration, MIC” value in the assay on P. aeruginosa UPA res., in the assay on P. aeruginosa ATCC 27853 and in the assay with P. aeruginosa 799/61 were over 256 µg/mL, 64 µg/mL and 4 µg/mL, respectively.

In the case of pacidamycin-5N, the “Minimal Inhibitory Concentration, MIC” value (in assay [1]; in the assay with E. coli ATCC 25922; in the assay on E. faecalis ATCC 29212; in the assay on S. aureus ATCC 29213; in assay [2]; in the assay with P. aeruginosa UPA res.) was over 500 µg/mL each time. For the same compound, the “Minimal Inhibitory Concentration, MIC” value was over 500 µg/mL in the assay with P. aeruginosa ATCC 27853 and 64 µg/mL with P. aeruginosa 799/61.

Take pacidamycin-5T: the “Minimal Inhibitory Concentration, MIC” value (in assay [1]; in the assay on E. coli ATCC 25922; with E. faecalis ATCC 29212; in the assay on S. aureus ATCC 29213; in assay [2]; in the assay with P. aeruginosa UPA res.) was over 500 µg/mL in each case. Moreover, the “Minimal Inhibitory Concentration, MIC” value with P. aeruginosa ATCC 27853 was over 500 µg/mL; in the assay on P. aeruginosa 799/61, 125 µg/mL.
